Assay results published in patent US6825348B2, “Antiviral compounds” (Academia Sinica, priority 2002, dated 2004).
Values after ≈ are worked out from the molar mass of the structure shown. Where two headings read alike, the source gives them in different places.

Experiments:
HeLa cells = settings: human
Vero cells = settings: African green monkey
[1] = target: T1, calf mucosal adenosine deaminase (ADA, EC 3.5.4.4) (Bos taurus, UniProt P56658); test: Substrate activity and competitive inhibition of adenosine deaminase; format: biochemical; settings: for type of ADA inhibition in words: ara-A used as substrate; for rel. Vmax: compound as ADA substrate, relative to ara A 3 = 1.0; for Ki: inhibition of ADA with ara-A 3 as substrate
T1 sequence (P56658 1-363): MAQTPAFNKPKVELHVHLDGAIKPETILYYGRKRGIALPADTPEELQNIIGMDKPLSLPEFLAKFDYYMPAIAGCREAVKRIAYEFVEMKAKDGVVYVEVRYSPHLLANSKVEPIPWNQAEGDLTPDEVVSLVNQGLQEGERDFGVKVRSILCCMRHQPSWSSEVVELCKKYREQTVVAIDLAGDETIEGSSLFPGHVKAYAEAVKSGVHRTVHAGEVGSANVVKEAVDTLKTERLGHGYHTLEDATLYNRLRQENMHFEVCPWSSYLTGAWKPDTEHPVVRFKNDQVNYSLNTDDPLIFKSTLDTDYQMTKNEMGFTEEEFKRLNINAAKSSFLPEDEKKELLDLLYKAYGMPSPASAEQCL

[2] = tested on: herpes simplex type 1 virus (HSV-1) (KOS); test: Inhibition of HSV-1 cytopathogenicity in Vero cell culture; format: cell-based; settings: Human alphaherpesvirus 1, Vero, read-out: IC50 HSV-1 (KOS)
[3] = Lipophilicity, 1-octanol/water partition coefficient; settings: 1-octanol/water (0.10 M phosphate buffer)
HSV thymidine kinase = HSV thymidine kinase (Human herpesvirus 1, UniProt P0DTH5); test: Phosphorylation of nucleosides by HSV thymidine kinase; format: biochemical
Sequence of HSV thymidine kinase (P0DTH5 whole entry, looked up): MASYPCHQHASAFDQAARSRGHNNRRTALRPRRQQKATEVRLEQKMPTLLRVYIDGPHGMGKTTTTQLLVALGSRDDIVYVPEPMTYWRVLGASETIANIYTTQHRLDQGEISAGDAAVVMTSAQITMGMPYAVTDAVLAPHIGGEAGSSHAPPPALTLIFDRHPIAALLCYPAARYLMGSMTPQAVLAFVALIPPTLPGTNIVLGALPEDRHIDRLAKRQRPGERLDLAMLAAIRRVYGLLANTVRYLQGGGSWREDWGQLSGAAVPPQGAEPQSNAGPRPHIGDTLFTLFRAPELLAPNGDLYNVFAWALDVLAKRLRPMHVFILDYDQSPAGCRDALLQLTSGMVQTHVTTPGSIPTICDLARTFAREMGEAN

[4] = Solubility in water (phosphate buffer, UV absorbance); settings: phosphate buffer, pH 6.8, aqueous buffer, thermodynamic from solid
HSV-1 (KOS) = test: Anti-HSV-1 activity in vivo, HSV-1-induced mortality in NMRI mice; settings: 6 days; for mean day of animal death / mean day of symptom initiation: terminated day 21; for protection against HSV-induced mortality: 150 mg/kg dose level i.p.; for responders at 100 mg/kg / responders at 150 mg/kg / responders at 250 mg/kg: Human alphaherpesvirus 1, ip, 504 h
[5] = tested on: human cytomegalovirus (AD-169); test: Inhibition of HCMV cytopathogenicity in Vero cell culture; format: cell-based; settings: Human betaherpesvirus 5, AD169; Vero cell culture; 50% inhibition of cytopathogenicity; for 1:1 mixtures IC50 refers to known antiviral drugs; read-out: IC50 HCMV (AD-169)
[6] = tested on: thymidine kinase-deficient (TK−) varicella-zoster virus (YS/R); test: microbe, parasite or virus in culture; format: cell-based; settings: Human alphaherpesvirus 3, Vero, read-out: IC50 TK−VZV (YS/R)
[7] = tested on: Vero cell thymidine kinase; test: Phosphorylation of nucleosides by Vero cell thymidine kinase; format: biochemical; settings: for Km: apparent Km, 37° C., pH 7.5; for rel. Vmax, Vero cell thymidine kinase: relative to thymidine = 1.0 × 10^2
[8] = LD50 and toxicity in mice, intraperitoneal
[9] = tested on: thymidine kinase-positive (TK+) varicella-zoster virus (YS); test: Inhibition of TK+ VZV cytopathogenicity in Vero cell culture; format: cell-based
[10] = tested on: moloney murine sarcoma virus (MSV); test: Inhibition of MSV cytopathogenicity in CEM cells (cell-protection assay); format: cell-based; settings: Moloney murine sarcoma virus, CCRF-CEM; CEM cells, average of duplicates; read-out: IC50 MSV
HIV-2 (LAV-2) = test: Inhibition of HIV-2 cytopathogenicity in MT4 cells; format: cell-based, human immunodeficiency virus; settings: Human immunodeficiency virus 2; MT4 cells, average of duplicates; read-out: IC50 HIV-2 (LAV-2)
HIV-1 (IIIB) = test: microbe, parasite or virus in culture; format: cell-based; settings: Human immunodeficiency virus 1, IIIB; MT4 cells, average of duplicates; read-out: IC50 HIV-1 (IIIB)
CEM cells = test: Toxicity toward CEM cells
MT4 cells = test: Toxicity toward MT4 cells
[11] = mixture with acyclovir 2 (w/w=1:1)
[12] = 100 mg/kg/day i.p., read-out: percentage of HSV-1-infected mice alive at day 21 postinfection
[13] = 100 mg/kg/day i.p., read-out: percentage of HSV-1-infected mice without symptoms at day 21 postinfection
[14] = 150 mg/kg/day i.p., read-out: percentage of HSV-1-infected mice alive at day 21 postinfection
[15] = 150 mg/kg/day i.p., read-out: percentage of HSV-1-infected mice without symptoms at day 21 postinfection
[16] = 250 mg/kg/day i.p., read-out: percentage of HSV-1-infected mice alive at day 21 postinfection
[17] = 250 mg/kg/day i.p., read-out: percentage of HSV-1-infected mice without symptoms at day 21 postinfection

Row | Compound | HeLa cell, concentration causing microscopically visible change or disruption in about 50% of the cell sheet (HeLa cells) [µg/mL] | Vero cell, concentration causing microscopically visible change or disruption in about 50% of the cell sheet (Vero cells) [µg/mL] | IC50 [2] [µg/mL] | logP at […] [3] | rel. Vmax, HSV thymidine kinase (HSV thymidine kinase) | solubility at 20 h [4] [µg/mL] | mean day of animal death (HSV-1 (KOS); 100 mg/kg/day i.p.) [days] | mean day of symptom initiation (HSV-1 (KOS); 100 mg/kg/day i.p.) [days] | mean day of animal death (HSV-1 (KOS); 150 mg/kg/day i.p.) [days] | mean day of symptom initiation (HSV-1 (KOS); 150 mg/kg/day i.p.) [days] | mean day of animal death (HSV-1 (KOS); 250 mg/kg/day i.p.) [days] | mean day of symptom initiation (HSV-1 (KOS); 250 mg/kg/day i.p.) [days] | responders at 100 mg/kg (HSV-1 (KOS); [12]) [%] | responders at 100 mg/kg (HSV-1 (KOS); [13]) [%] | responders at 150 mg/kg (HSV-1 (KOS); [14]) [%] | IC50 [5] [µg/mL] | IC50 [6] [µg/mL] | Km [7] [mM] | rel. Vmax, Vero cell thymidine kinase [7] | IC50 TK+VZV (YS) [9] [µg/mL] | other results
1 | Nc1ncnc2ncn(COCCO)c12 [Compound 14, 7-[(2-Hydroxyethoxy)methyl]adenine] | 472 | 496 | 0.58 (≈ 2.77 µM) | 1.24 | <3.0 | 4710 (≈ 22500 µM) | 19.8 ± 1.7 | 17.5 ± 2.1 | >21 | 19.9 ± 1.3 | >21 | >21 | 95 | 80 | 100 | 1 (≈ 4.78 µM) | 0.97 (≈ 4.64 µM) | > 30 | <3.0 | 1.1 (≈ 5.26 µM) | ADA substrate / inhibitor property in words [1]: functioned as ADA substrates; type of ADA inhibition in words [1]: competitive inhibition; rel. Vmax [1]: 1.50 × 10^−6; Ki [1]: 8.3 µM; increase on the rate of phosphorylation of acyclovir 2 by HSV thymidine kinase (HSV thymidine kinase; [11]): 2 fold; protection against HSV-induced mortality (HSV-1 (KOS)): full protection; responders at 150 mg/kg (HSV-1 (KOS); [15]): 88%; responders at 250 mg/kg (HSV-1 (KOS); [16]): 100%; responders at 250 mg/kg (HSV-1 (KOS); [17]): 100%; LD50 ([8]; NMRI, mouse, in vivo, ip): 950 mg/kg; level up to which no toxicity was shown ([8]; mice, intraperitoneal): 400 mg/kg
2 | Nc1nc2c(ncn2COCCO)c(=O)[nH]1 [acyclovir 2, 9-[(2-hydroxyethoxy)methyl]guanine, reference compound] | 259 | 269 | 0.46 (≈ 2.04 µM) | -0.48 | 39.2 | 400 (≈ 1780 µM) | 18.9 ± 2.1 | 15.6 ± 1.6 | >21 | 19.1 ± 1.3 | >21 | >21 | 80 | 65 | 100 | 32 (≈ 142 µM) | – | 22 | <3.0 | – | protection against HSV-induced mortality (HSV-1 (KOS)): full protection; responders at 150 mg/kg (HSV-1 (KOS); [15]): 86%; responders at 250 mg/kg (HSV-1 (KOS); [16]): 100%; responders at 250 mg/kg (HSV-1 (KOS); [17]): 100%
3 | Cc1cn([C@H]2C[C@H](O)[C@@H](CO)O2)c(=O)[nH]c1=O [thymidine] | – | – | – | – | – | – | – | – | – | – | – | – | – | – | – | – | – | 0.001 | 1.0 × 10^2 | – | –
4 | Nc1nc2c(ncn2CCOCP(=O)(O)O)c(=O)[nH]1 [PMEG 27, 9-[2-(phosphonomethoxy)ethyl]guanine, reference compound] | 9.1 | 7.0 | 4.6 (≈ 15.9 µM) | 0.14 | – | 360 (≈ 1240 µM) | – | – | – | – | – | – | – | – | – | 0.35 (≈ 1.21 µM) | 0.06 (≈ 0.207 µM) | – | – | 0.040 (≈ 0.138 µM) | IC50 [10]: 0.19 µg/mL (≈ 0.657 µM); IC50 (HIV-2 (LAV-2)): 18 µg/mL (≈ 62.2 µM); IC50 (HIV-1 (IIIB)): 16 µg/mL (≈ 55.3 µM); CEM cell, concentration reducing the number of viable uninfected cells by 50% (CEM cells): 12 µg/mL; MT4 cell, concentration reducing the number of viable uninfected cells by 50% (MT4 cells): 16 µg/mL
5 | Nc1ncnc2c1ncn2COCCO [Compound 1, 9-[(2-Hydroxyethoxy)methyl]adenine, reference compound] | 196 | 209 | 4.5 (≈ 21.5 µM) | 0.98 | <3.0 | 2560 (≈ 12200 µM) | – | – | – | – | – | – | – | – | – | 4.8 (≈ 22.9 µM) | 9 (≈ 43 µM) | > 30 | <3.0 | 7.0 (≈ 33.5 µM) | ADA substrate / inhibitor property in words [1]: functioned as ADA substrates; type of ADA inhibition in words [1]: competitive inhibition; rel. Vmax [1]: 1.48 × 10^−2; Ki [1]: 141 µM; effect on the rate of phosphorylation of acyclovir 2 in words (HSV thymidine kinase; [11]): did not induce any increase
6 | Nc1nc2ncn(COCCO)c2c(=O)[nH]1 [Compound 9, 7-[(2-Hydroxyethoxy)methyl]guanine] | 114 | 99 | 1.1 (≈ 4.88 µM) | -0.6 | 28.0 | 320 (≈ 1420 µM) | 14.1 ± 0.8 | 10.9 ± 0.6 | 16.0 ± 1.5 | 13.0 ± 1.1 | 18.5 ± 1.0 | 15.1 ± 1.2 | 66 | 48 | 78 | 16 (≈ 71 µM) | 38 (≈ 169 µM) | 0.0183 | 12.0 | 13 (≈ 57.7 µM) | responders at 150 mg/kg (HSV-1 (KOS); [15]): 57%; responders at 250 mg/kg (HSV-1 (KOS); [16]): 90%; responders at 250 mg/kg (HSV-1 (KOS); [17]): 67%
